“Also recorded” adds a separate entry of the source. Like-named read-outs stand apart in the source and are kept apart here. No end group written: not given here.
Assays:
mouse vaginal cells = assay: tritiated thymidine incorporation into DNA of cultured mouse vaginal epithelial cells; assay type: cell-based, SKH-1 hairless mice
Experimental: The vaginas from five SKH-1 hairless mice were harvested, washed, and placed in trypsin 1× overnight. From each, the vaginal epithelium was peeled and rinsed in 0.02% EDTA solution and centrifuged to isolate the cells. The cells were rinsed in media, centrifuged, and plated into a 100 mm dish atop a layer of irradiated 3T3 cells containing media as is used for keratinocytes and described above. The cells were grown and passed into 24 well plates for tritiated thymidine incorporation as described above. Cells were treated with either a placebo vehicle or with 1×10^−7 M PTH(1-34) for 24 hours. The cells were harvested and the DNA was extracted and counted using a beta liquid scintillation counter. The amount of tritiated thymidine recovered in the DNA is a measure of DNA synthesis in the cells and is synonymous with cellular proliferative activity.

[1] = system: cultured human keratinocytes; details: in vitro, previously shown in U.S. Pat. Nos. 5,527,772, 5,840,690 and 6,066,618; cited from earlier work
PTHPTHrP receptor [2] = biological target: T1, PTHPTHrP receptor (Homo sapiens, UniProt Q03431); details: cited from earlier work
T1 sequence (Q03431 27-593): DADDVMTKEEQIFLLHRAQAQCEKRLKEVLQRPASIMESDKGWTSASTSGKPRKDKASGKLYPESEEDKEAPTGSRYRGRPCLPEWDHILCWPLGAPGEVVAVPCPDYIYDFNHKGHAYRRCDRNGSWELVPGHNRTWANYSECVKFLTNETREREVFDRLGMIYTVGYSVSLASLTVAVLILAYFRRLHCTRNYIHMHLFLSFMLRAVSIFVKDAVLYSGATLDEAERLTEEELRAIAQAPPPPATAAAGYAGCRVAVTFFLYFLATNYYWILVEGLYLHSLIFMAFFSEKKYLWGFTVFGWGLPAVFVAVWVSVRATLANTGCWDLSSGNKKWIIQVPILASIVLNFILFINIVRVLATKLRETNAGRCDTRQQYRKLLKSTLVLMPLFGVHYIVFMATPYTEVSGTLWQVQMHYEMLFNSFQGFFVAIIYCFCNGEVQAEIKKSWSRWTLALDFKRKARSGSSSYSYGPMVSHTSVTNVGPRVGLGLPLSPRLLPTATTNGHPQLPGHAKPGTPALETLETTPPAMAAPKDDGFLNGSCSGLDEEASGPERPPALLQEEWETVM

hPTH-2 receptor = hPTH-2 receptor (Homo sapiens, UniProt P49190); details: cited from earlier work
PTHPTHrP receptor [3] = biological target: T1, PTHPTHrP receptor; details: cited from earlier work; remark: listed apart in the source

Chain of hPTH-2 receptor (P49190 25-550): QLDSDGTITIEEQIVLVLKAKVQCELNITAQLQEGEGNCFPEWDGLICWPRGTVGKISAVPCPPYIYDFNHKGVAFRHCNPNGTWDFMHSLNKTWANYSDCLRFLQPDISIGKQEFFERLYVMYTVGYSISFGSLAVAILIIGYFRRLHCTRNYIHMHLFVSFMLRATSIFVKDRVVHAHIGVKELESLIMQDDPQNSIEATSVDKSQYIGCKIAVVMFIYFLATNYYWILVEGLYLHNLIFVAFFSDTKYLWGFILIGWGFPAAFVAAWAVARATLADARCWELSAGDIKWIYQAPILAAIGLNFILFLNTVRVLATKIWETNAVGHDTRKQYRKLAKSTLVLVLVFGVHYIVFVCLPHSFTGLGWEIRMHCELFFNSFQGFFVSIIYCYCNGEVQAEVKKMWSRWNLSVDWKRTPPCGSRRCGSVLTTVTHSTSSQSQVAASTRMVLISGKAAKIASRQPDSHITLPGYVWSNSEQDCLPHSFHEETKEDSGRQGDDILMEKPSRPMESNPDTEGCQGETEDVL

Row | Substance | block of inhibition of proliferation or stimulation of differentiation by hPTH(1-34), hPTHrP(1-34), or 1,25(OH)2D3 [1] | also measured
1 | hPTH(1-34) (SVSEIQLMHNLGKHLNSMERVEWLRKKLQDVHNF; listed as Homo sapiens) | – | incorporation of tritiated thymidine into the DNA (DNA synthesis) (mouse vaginal cells; 1×10^−7 M for 24 hours, versus placebo vehicle, FIG. 1): increased; vaginal cell growth (mouse vaginal cells; conclusion from FIG. 1, mouse vaginal cells in vitro): can stimulate vaginal cell growth; also recorded: can stimulate vaginal cell-growth
2 | hPTH(7-31) (LMHNLGKHLNSMERVEWLRKKLQDV; listed as Homo sapiens) | block the inhibition of proliferation or stimulation of differentiation | –
3 | bPTHrP(5-36) (HQLLHDKGKSIQDLRRRFFLHHLIAEIHTAEI; listed as Homo sapiens) [printed only in b18] | block the inhibition of proliferation or stimulation of differentiation | –
4 | hPTH(5-34) (IQLMHNLGKHLNSMERVEWLRKKLQDVHNF; listed as Homo sapiens) | block the inhibition of proliferation or stimulation of differentiation | –
5 | [Nle^8,18,Tyr^34]bPTH(7-34),Amide (FXHNLGKHLSSXERVEWLRKKLQDVHNY; norleucine at 8,18; C-terminal amide; Bovine; VARIANT (2)..(12) Xaa = Nle) [[Nle^8,18, Tyr^34]bPTH (7-34)NH2] | block the inhibition of proliferation or stimulation of differentiation | –
6 | [Tyr^34]bPTH(7-34),Amide (FMHNLGKHLSSMERVEWLRKKLQDVHNY-NH2) [[Tyr^34]bPTH (7-34)NH2] | block the inhibition of proliferation or stimulation of differentiation | –
7 | hPTHrP(15-34) (IQDLRRRFFLHHLIAEIHTA; listed as Homo sapiens) | – | block of binding of hPTH(1-34) or hPTHrP(1-34) to the PTHPTHrP receptor (PTHPTHrP receptor [2]): can block the binding
8 | hPTH(15-34) (LNSMERVEWLRKKLQDVHNF; listed as Homo sapiens) | – | block of binding of hPTH(1-34) or hPTHrP(1-34) to the PTHPTHrP receptor (PTHPTHrP receptor [2]): can block the binding
9 | hPTHrP(5-34) | block the inhibition of proliferation or stimulation of differentiation | –
10 | hPTHrP(7-31) (LLHDKGKSIQDLRRRFFLHHLIAEI; listed as Homo sapiens) | block the inhibition of proliferation or stimulation of differentiation | –
11 | [Trp^23]hPTHrP(1-36) (AVSEHQLLHDKGKSIQDLRRRFWLHHLIAEIHTAEI; listed as Homo sapiens) [[Trp^23]hPTHrP (1-36)] | – | antagonist function at the PTH-2 receptor (hPTH-2 receptor): hPTH-2 receptor antagonist; antagonist function at the PTH-2 receptor (hPTH-2 receptor; listed as [Trp^23]PTHrP(1-36)): particularly potent antagonist
12 | [Leu^11,D-Trp^12]hPTHrP(7-34),Amide [[Leu^11,D-Trp^12]hPTHrP(7-34)NH2] | – | antagonist function at the hPTH/PTHrP receptor (PTHPTHrP receptor [3]): highly potent antagonist
13 | hPTH(5-36) (IQLMHNLGKHLNSMERVEWLRKKLQDVHNFVA; listed as Homo sapiens) | block the inhibition of proliferation or stimulation of differentiation | –
